Reference: ChEMBL document CHEMBL3352422, “Imidazo[2,1-b]thiazole derivatives as new inhibitors of 15-lipoxygenase” (Eur J Med Chem, 2014)
pIC50: −log10 of the molar value. Active and inactive are the calls of the source. The rule behind the calls is not given here.

tested on: PC-12; experiment: Cytoprotective activity against rat PC12 cells assessed as protection against H2O2-induced cell death at 1 to 10 uM pre-treated 3 hrs before H2O2 addition and measured 24 hrs post H2O2 challenge by MTT assay; format: functional, cell-based; settings: not given

Which Activity does the source give for `COc1ccc(-c2csc3nc(-c4ccccc4)c(NC(C)(C)CC(C)(C)C)n23)cc1` here?
The Activity was “Active”.

tested on: not listed separately; experiment: Toxicity in rat PC12 cells at 1 to 10 uM after 24 hrs by MTT assay; format: cell-based; settings: pc-12, 24 h

With `COc1ccc(-c2csc3nc(-c4ccccc4)c(NC(C)(C)CC(C)(C)C)n23)cc1` as the compound, how does the Activity read?
The Activity was “Non-toxic”.

tested on: not listed separately; experiment: Inhibition of soybean 15-LOX incubated for 4 mins before linoleic acid substrate addition by spectrophotometry; parameters: species or system Glycine max; settings: not given

With `Brc1ccccc1-c1nc2scc(-c3ccccc3)n2c1NC1CCCCC1` as the compound, how does the IC50 read?
The IC50 was “Not Active”.

same assay, conditions: read-out: IC50

With `CC(C)(C)CC(C)(C)Nc1c(-c2ccccc2[N+](=O)[O-])nc2scc(-c3ccccc3)n12` as the compound, how does the pIC50 read?
Its pIC50 is 4.15.

With `CC(C)(C)CC(C)(C)Nc1c(-c2ccc(Cl)cc2)nc2scc(-c3ccc(Br)cc3)n12` as the compound, how does the pIC50 read?
Its pIC50 is 4.68.

With `COc1ccc(-c2csc3nc(-c4ccccc4)c(NC(C)(C)CC(C)(C)C)n23)cc1` as the compound, how does the pIC50 read?
Its pIC50 is 4.94.

With `O=c1c(O)c(-c2ccc(O)c(O)c2)oc2cc(O)cc(O)c12` [QUERCETIN] as the compound, how does the pIC50 read?
Its pIC50 is 4.64.

With `CC(C)(C)Nc1c(-c2ccc(Cl)cc2)nc2scc(-c3ccccc3)n12` as the compound, how does the pIC50 read?
Its pIC50 is 4.48.

With `Clc1ccc(-c2nc3scc(-c4ccc(Br)cc4)n3c2NC2CCCCC2)cc1` as the compound, how does the pIC50 read?
Its pIC50 is 4.28.

With `O=[N+]([O-])c1ccc(-c2nc3scc(-c4ccccc4)n3c2NC2CCCCC2)cc1` as the compound, how does the pIC50 read?
The pIC50 was 3.13.

With `COc1ccc(-c2nc3scc(-c4ccccc4)n3c2NC2CCCCC2)cc1` as the compound, how does the pIC50 read?
Its pIC50 is 3.12.

With `CC(C)(C)Nc1c(-c2ccc([N+](=O)[O-])cc2)nc2scc(-c3ccccc3)n12` as the compound, how does the pIC50 read?
Its pIC50 is 4.35.

With `O=[N+]([O-])c1ccccc1-c1nc2scc(-c3ccc(Br)cc3)n2c1NC1CCCCC1` as the compound, how does the pIC50 read?
Its pIC50 is 3.77.

With `Fc1ccccc1-c1nc2scc(-c3ccccc3)n2c1NC1CCCCC1` as the compound, how does the pIC50 read?
Its pIC50 is 4.45.

With `CC(C)(C)CC(C)(C)Nc1c(-c2ccc([N+](=O)[O-])cc2)nc2scc(-c3ccc(Br)cc3)n12` as the compound, how does the pIC50 read?
Its pIC50 is 4.49.

With `Cc1ccc(-c2nc3scc(-c4ccccc4)n3c2NC(C)(C)C)cc1` as the compound, how does the pIC50 read?
The pIC50 was 4.46.

With `COc1ccc(-c2nc3scc(-c4ccccc4)n3c2NC(C)(C)C)cc1` as the compound, how does the pIC50 read?
Its pIC50 is 4.24.
